US20040028646A1, “Particle formation” (priority 2002, published 2004)

Test system: lysozyme
Assay: Retention of original lysozyme activity after Nektar SCF processing
Type: biochemical
Settings: after Nektar SCF processing at 0° C., 100 bar

Substance: Experiment 8.2: conjugate of the protein lysozyme with linear mPEG of 5 kDaltons
- Retained original (pre-Nektar SCF) activity: 108%

Substance: Experiment 8.1: unconjugated lysozyme subjected to Nektar SCF processing from 20 mg/ml aqueous solution
- Retained original (pre-Nektar SCF) activity: 105%
